In general, IC50 refers to the concentration that inhibits the measured activity by half. Read a high IC50 as weaker potency.

T1 sequence (Q16539 whole entry): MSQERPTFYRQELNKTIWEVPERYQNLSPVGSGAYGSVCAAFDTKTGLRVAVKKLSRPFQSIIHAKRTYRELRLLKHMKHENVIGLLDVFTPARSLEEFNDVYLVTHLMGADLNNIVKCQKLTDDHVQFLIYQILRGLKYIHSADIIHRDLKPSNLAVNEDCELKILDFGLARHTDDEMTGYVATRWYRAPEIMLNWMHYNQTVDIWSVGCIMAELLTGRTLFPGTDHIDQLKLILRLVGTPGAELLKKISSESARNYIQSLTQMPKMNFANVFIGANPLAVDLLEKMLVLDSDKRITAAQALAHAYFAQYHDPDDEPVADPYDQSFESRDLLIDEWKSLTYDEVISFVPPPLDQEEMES

The test addresses T1, active p38 alpha enzyme (Upstate Biotechnology) (Homo sapiens, UniProt Q16539).
T1 construct: purchased Upstate Biotechnology
Briefly: p38α biochemical assay (ATP turnover, luminescent detection, Cambrex PKlight). The note with it: p38α kinase; Table 1 Biological Activity. The method in brief: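 Active human p38α was incubated with full-length MapkapK2 protein as substrate and 1.4 uM ATP (final) for 2 hours at 30C. Buffer: 200 mM Tris, 100 mM MgCl2, 1.5 mM EGTA, 4 mM CaCl2, 20 mM MOPS, 1 mM EDTA, 1% glycerol, 0.1% β-mercaptoethanol, 1 mg/ml BSA. Total ATP turnover read by luminescence.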
For the compound `CC(=O)Nc1ccc(NC(=O)c2csc(-c3sc(C)nc3-c3ccc(F)cc3)n2)cc1` [Example 2000], the IC50 was at most 1 µM.

Turning to `CC(=O)Nc1ccc(NC(=O)c2csc(-c3sc(C)nc3-c3ccc(F)cc3)n2)cn1` [Example 2001], the IC50 is at most 1 µM.

As to `Cc1nc(-c2ccc(F)cc2)c(-c2nc(C(=O)Nc3ccc4c(c3)OCCO4)cs2)s1` [Example 2002], the IC50 is at most 1 µM.

On to `COc1ccc(NC(=O)c2csc(-c3sc(C)nc3-c3ccc(F)cc3)n2)cc1OC` [Example 2003], for which the half-maximal inhibitory concentration (IC50) was over 1 µM.

The compound `Cc1nc(-c2ccc(F)cc2)c(-c2nc(C(=O)Nc3ccccc3-n3cccc3)cs2)s1` [Example 2004] gave an IC50 of over 1 µM.

As for `Cc1nc(-c2ccc(F)cc2)c(-c2nc(C(=O)Nc3ccc(C(F)(F)F)cc3)cs2)s1` [Example 2005], the half-maximal inhibitory concentration (IC50) was over 1 µM.

Consider `Cc1nc(-c2ccc(F)cc2)c(-c2nc(C(=O)Nc3cccc(C(F)(F)F)c3)cs2)s1` [Example 2006], for which the IC50 was over 1 µM.

Compound `Cc1nc(-c2ccc(F)cc2)c(-c2nc(C(=O)Nc3ccc(Cl)c(Cl)c3)cs2)s1` [Example 2007] came in with an IC50 of over 1 µM.

In the case of `Cc1nc(-c2ccc(F)cc2)c(-c2nc(C(=O)Nc3c(C)cccc3C(C)(C)C)cs2)s1` [Example 2008], the IC50 is at most 1 µM.

On to `Cc1nc(-c2ccc(F)cc2)c(-c2nc(C(=O)Nc3ccc(N(C)C)cc3)cs2)s1` [Example 2009], for which the IC50 was at most 1 µM.

`Cc1nc(-c2ccc(F)cc2)c(-c2nc(C(=O)Nc3ccccc3-c3ccccc3)cs2)s1` [Example 2010] yielded an IC50 of at most 1 µM.

In turn, `Cc1nc(-c2ccc(F)cc2)c(-c2nc(C(=O)Nc3ccc(OC(F)(F)F)cc3)cs2)s1` [Example 2011] displayed an IC50 of over 1 µM.

For the compound `Cc1nc(-c2ccc(F)cc2)c(-c2nc(C(=O)Nc3c(C(C)C)cccc3C(C)C)cs2)s1` [Example 2012], the concentration for half-maximal inhibition (IC50) was over 1 µM.

With `Cc1nc(-c2ccc(F)cc2)c(-c2nc(C(=O)Nc3ccc(F)cc3C(F)(F)F)cs2)s1` [Example 2013], the IC50 was over 1 µM.

On to `Cc1nc(-c2ccc(F)cc2)c(-c2nc(C(=O)Nc3cc(C(F)(F)F)ccc3F)cs2)s1` [Example 2014], for which the IC50 is over 1 µM.

Compound `Cc1nc(-c2ccc(F)cc2)c(-c2nc(C(=O)Nc3ccc(F)c(C(F)(F)F)c3)cs2)s1` [Example 2015] returned an IC50 of over 1 µM.

As for `CCOc1ccc(OCC)c(NC(=O)c2csc(-c3sc(C)nc3-c3ccc(F)cc3)n2)c1` [Example 2016], the IC50 was over 1 µM.

As for `Cc1nc(-c2ccc(F)cc2)c(-c2nc(C(=O)Nc3cc(Cl)c(Cl)c(Cl)c3)cs2)s1` [Example 2017], the IC50 is over 1 µM.

In turn, `Cc1nc(-c2ccc(F)cc2)c(-c2nc(C(=O)Nc3ccccc3C(=O)c3ccccc3)cs2)s1` [Example 2018] yielded an IC50 of over 1 µM.

On to `Cc1nc(-c2ccc(F)cc2)c(-c2nc(C(=O)Nc3ccccc3COc3ccccc3)cs2)s1` [Example 2019], for which the IC50 was over 1 µM.

With `COc1ccc(-c2ccccc2)cc1NC(=O)c1csc(-c2sc(C)nc2-c2ccc(F)cc2)n1` [Example 2020], the IC50 was over 1 µM.

`Cc1nc(-c2ccc(F)cc2)c(-c2nc(C(=O)Nc3ncccc3OCc3ccccc3)cs2)s1` [Example 2021] showed a concentration for half-maximal inhibition (IC50) of over 1 µM.

Regarding `Cc1nc(-c2ccc(F)cc2)c(-c2nc(C(=O)Nc3cc(C(F)(F)F)ccc3C(F)(F)F)cs2)s1` [Example 2022], the IC50 is over 1 µM.

`Cc1nc(-c2ccc(F)cc2)c(-c2nc(C(=O)Nc3cc(C(F)(F)F)cc(C(F)(F)F)c3)cs2)s1` [Example 2023] had an IC50 of over 1 µM.

As to `Cc1nc(-c2ccc(F)cc2)c(-c2nc(C(=O)Nc3ccc(C(F)(F)F)cc3C(F)(F)F)cs2)s1` [Example 2024], the IC50 is at most 1 µM.

As to `O=C(NCC1CC1)c1csc(-c2c(-c3ccc(F)cc3)n[nH]c2C2CCNCC2)n1` [Example 2029], the IC50 was at most 1 µM.

Compound `O=C(O)c1csc(-c2c(-c3ccc(F)cc3)n[nH]c2C2CCNCC2)n1` [Example 2030] returned an IC50 of over 1 µM.

On to `CNC(=O)c1csc(-c2c(-c3ccc(F)cc3)n[nH]c2C2CCNCC2)n1` [Example 2031], for which the IC50 is at most 1 µM.

In turn, `N#CCNC(=O)c1csc(-c2c(-c3ccc(F)cc3)n[nH]c2C2CCNCC2)n1` [Example 2032] returned an IC50 of at most 1 µM.

The compound `O=C(NC1CC1)c1csc(-c2c(-c3ccc(F)cc3)n[nH]c2C2CCNCC2)n1` [Example 2033] gave an IC50 of at most 1 µM.

`CCCNC(=O)c1csc(-c2c(-c3ccc(F)cc3)n[nH]c2C2CCNCC2)n1` [Example 2034] showed an IC50 of over 1 µM.

In the case of `NCCNC(=O)c1csc(-c2c(-c3ccc(F)cc3)n[nH]c2C2CCNCC2)n1` [Example 2035], the IC50 is over 1 µM.

`O=C(NCCO)c1csc(-c2c(-c3ccc(F)cc3)n[nH]c2C2CCNCC2)n1` [Example 2036] displayed an IC50 of at most 1 µM.

As to `N#CCCNC(=O)c1csc(-c2c(-c3ccc(F)cc3)n[nH]c2C2CCNCC2)n1` [Example 2037], the IC50 is over 1 µM.

Compound `O=C(NC1CCC1)c1csc(-c2c(-c3ccc(F)cc3)n[nH]c2C2CCNCC2)n1` [Example 2038] registered an IC50 of at most 1 µM.

For `CCC(C)NC(=O)c1csc(-c2c(-c3ccc(F)cc3)n[nH]c2C2CCNCC2)n1` (stereo not drawn) [Example 2039], the IC50 was at most 1 µM.

`CC(C)CNC(=O)c1csc(-c2c(-c3ccc(F)cc3)n[nH]c2C2CCNCC2)n1` [Example 2040] displayed an IC50 of over 1 µM.

`O=C(NCCCO)c1csc(-c2c(-c3ccc(F)cc3)n[nH]c2C2CCNCC2)n1` [Example 2041] showed an IC50 of at most 1 µM.

For the compound `CC(CO)NC(=O)c1csc(-c2c(-c3ccc(F)cc3)n[nH]c2C2CCNCC2)n1` (stereo not drawn) [Example 2042], the IC50 was at most 1 µM.

In turn, `COCCNC(=O)c1csc(-c2c(-c3ccc(F)cc3)n[nH]c2C2CCNCC2)n1` [Example 2043] showed an IC50 of at most 1 µM.

`O=C(NC1CCCC1)c1csc(-c2c(-c3ccc(F)cc3)n[nH]c2C2CCNCC2)n1` [Example 2044] showed an IC50 of at most 1 µM.

With `CCCC(C)NC(=O)c1csc(-c2c(-c3ccc(F)cc3)n[nH]c2C2CCNCC2)n1` (stereo not drawn) [Example 2045], the IC50 was at most 1 µM.

In the case of `CCC(C)CNC(=O)c1csc(-c2c(-c3ccc(F)cc3)n[nH]c2C2CCNCC2)n1` (stereo not drawn) [Example 2046], the IC50 is over 1 µM.

Consider `CC(C)C(C)NC(=O)c1csc(-c2c(-c3ccc(F)cc3)n[nH]c2C2CCNCC2)n1` (stereo not drawn) [Example 2047], for which the IC50 was over 1 µM.

Regarding `CC(C)CCNC(=O)c1csc(-c2c(-c3ccc(F)cc3)n[nH]c2C2CCNCC2)n1` [Example 2048], the IC50 was over 1 µM.

Consider `CN(C)CCNC(=O)c1csc(-c2c(-c3ccc(F)cc3)n[nH]c2C2CCNCC2)n1` [Example 2049], for which the IC50 was over 1 µM.

On to `COCC(C)NC(=O)c1csc(-c2c(-c3ccc(F)cc3)n[nH]c2C2CCNCC2)n1` (stereo not drawn) [Example 2050], for which the IC50 is over 1 µM.

`CCC(CO)NC(=O)c1csc(-c2c(-c3ccc(F)cc3)n[nH]c2C2CCNCC2)n1` (stereo not drawn) [Example 2051] returned an IC50 of at most 1 µM.

In the case of `CCC(CO)NC(=O)c1csc(-c2c(-c3ccc(F)cc3)n[nH]c2C2CCNCC2)n1` (stereo not drawn) [Example 2052], the IC50 was over 1 µM.

`O=C(NCCCCO)c1csc(-c2c(-c3ccc(F)cc3)n[nH]c2C2CCNCC2)n1` [Example 2053] showed an IC50 of over 1 µM.

For the compound `O=C(NCc1ccco1)c1csc(-c2c(-c3ccc(F)cc3)n[nH]c2C2CCNCC2)n1` [Example 2054], the IC50 was over 1 µM.

Regarding `O=C(NC1CCCCC1)c1csc(-c2c(-c3ccc(F)cc3)n[nH]c2C2CCNCC2)n1` [Example 2055], the IC50 was over 1 µM.

Turning to `O=C(NCC1CCCO1)c1csc(-c2c(-c3ccc(F)cc3)n[nH]c2C2CCNCC2)n1` (stereo not drawn) [Example 2056], the IC50 was over 1 µM.

As to `CC(C)(C)CCNC(=O)c1csc(-c2c(-c3ccc(F)cc3)n[nH]c2C2CCNCC2)n1` [Example 2057], the IC50 was over 1 µM.

In the case of `CC(C)CC(C)NC(=O)c1csc(-c2c(-c3ccc(F)cc3)n[nH]c2C2CCNCC2)n1` (stereo not drawn) [Example 2058], the IC50 is over 1 µM.

On to `O=C(NC1CONC1=O)c1csc(-c2c(-c3ccc(F)cc3)n[nH]c2C2CCNCC2)n1` (stereo not drawn) [Example 2059], for which the half-inhibitory concentration (IC50) was over 1 µM.

In the case of `O=C(NN1CCOCC1)c1csc(-c2c(-c3ccc(F)cc3)n[nH]c2C2CCNCC2)n1` [Example 2060], the IC50 was over 1 µM.

The compound `CC(C)C(CO)NC(=O)c1csc(-c2c(-c3ccc(F)cc3)n[nH]c2C2CCNCC2)n1` (stereo not drawn) [Example 2061] yielded an IC50 of at most 1 µM.

In turn, `O=C(NCc1ccccc1)c1csc(-c2c(-c3ccc(F)cc3)n[nH]c2C2CCNCC2)n1` [Example 2062] returned an IC50 of over 1 µM.

Take `O=C(NCc1ccccn1)c1csc(-c2c(-c3ccc(F)cc3)n[nH]c2C2CCNCC2)n1` [Example 2063]: the IC50 was over 1 µM.

For `O=C(NCc1ccncc1)c1csc(-c2c(-c3ccc(F)cc3)n[nH]c2C2CCNCC2)n1` [Example 2064], the IC50 was at most 1 µM.

`O=C(NCc1cccs1)c1csc(-c2c(-c3ccc(F)cc3)n[nH]c2C2CCNCC2)n1` [Example 2065] had an IC50 of over 1 µM.

`CC1CCC(NC(=O)c2csc(-c3c(-c4ccc(F)cc4)n[nH]c3C3CCNCC3)n2)CC1` (stereo not drawn) [Example 2066] came in with an IC50 of over 1 µM.

Regarding `O=C(NCC1CCCCC1)c1csc(-c2c(-c3ccc(F)cc3)n[nH]c2C2CCNCC2)n1` [Example 2067], the IC50 is over 1 µM.

In turn, `O=C(NC1CCCCCC1)c1csc(-c2c(-c3ccc(F)cc3)n[nH]c2C2CCNCC2)n1` [Example 2068] showed an IC50 of over 1 µM.

For `CC1CCCCC1NC(=O)c1csc(-c2c(-c3ccc(F)cc3)n[nH]c2C2CCNCC2)n1` (stereo not drawn) [Example 2069], the IC50 was over 1 µM.

As for `O=C(NCCN1CCCC1)c1csc(-c2c(-c3ccc(F)cc3)n[nH]c2C2CCNCC2)n1` [Example 2070], the IC50 was over 1 µM.

The compound `CN1CCN(NC(=O)c2csc(-c3c(-c4ccc(F)cc4)n[nH]c3C3CCNCC3)n2)CC1` [Example 2071] came in with an IC50 of over 1 µM.

Compound `CCN(CC)CCNC(=O)c1csc(-c2c(-c3ccc(F)cc3)n[nH]c2C2CCNCC2)n1` [Example 2072] came in with a half-maximal inhibitory concentration (IC50) of over 1 µM.

The values are drawn from patent publication US20060252807A1, “Novel ortho-terphenyl inhibitors of p38 kinase and methods of treating inflammatory disorders” (Kalypsys, Inc., priority 2005, published 2006).
